Laboratory results as given in patent US20220202905A1, “COMPOSITION FOR PREVENTING OR TREATING NEUROTROPHIC KERATITIS WHICH CONTAINS PACAP PEPTIDE OR STABILIZED PACAP PEPTIDE” (SENJU PHARMACEUTICAL CO., LTD., priority 2019, published 2022).
Square brackets hold non-standard residues; d marks the D form. Peptide text beside a SMILES is read from it. Ala(1H-tetrazol-5-yl) = N[C@@H](Cc1nnn[nH]1)C(=O)O

Assay: Peptide stability test, Tris buffer (pH 7.0), 60° C. storage, HPLC remaining rate
Assay type: physicochemical
Conditions: 100 μM in Tris buffer pH 7.0
Protocol: Peptides 1, 2 and 6 to 9 synthesized in Example 2 were weighed and dissolved in Tris buffer (pH 7.0) to prepare 1.0 mM peptide solutions. Each solution was filtered with a Chromatdisk (product of Merck Millipore, Millex-GV, 0.22 μm). The filtrate was diluted to 100 μM with Tris buffer (pH 7.0) and dispensed into a tube (Protein LoBind Tube by Eppendorf Co.). The prepared peptide solutions were incubated for 1 week or 2 weeks in a 60° C. thermostatic bath to obtain stored samples. A simultaneously prepared sample among the peptide solutions that was not stored was used as a standard sample (initial sample). The standard sample and the stored samples were stored at −30° C. until sample analysis. Each stored sample was measured under the following HPLC analysis conditions 2, and the remaining rate after correction for water for each peptide among the stored samples was calculated in the same manner as Example 3. Guard column: XSelect CSH C18 by Waters Co., 5 μm, 4.6×20 mm Guard Cartridge Detection wavelength: 220 nm Mobile phase A: 0.1% formic acid aqueous solution Mobile phase B: 0.1% acetonitrile formate solution Measuring time: 20 minutes Measuring sample injection rate: 50 μL Flow rate: 1.0 mL/min Column temperature: 40° C. Sample cooler: 25° C. Mobile phase delivery: The mixing ratio of mobile phase A and mobile phase B was varied as shown in Table 5 for linear concentration gradient control. Peptides 12 to 25, 27 and 28 synthesized in Example 2 were weighed and dissolved in Tris buffer (pH 7.0) to prepare 1.0 mM peptide solutions. Each solution was filtered with a Chromatdisk (product of Merck Millipore, Millex-GV, 0.22 μm). The filtrate was diluted to 100 μM with Tris buffer (pH 7.0) and dispensed into a tube (Protein LoBind Tube by Eppendorf Co.). The prepared peptide solutions were incubated for one week or 2 weeks in a 60° C. thermostatic bath to obtain stored samples. A simultaneously prepared sample among the peptide solutions that was not stored was used as a standard sample (initial sample). The standard sample and the stored samples were stored at −30° C. until sample analysis. The remaining rate after correction for water for each peptide among the stored samples was calculated in the same manner as Example 4, and the results are shown in Table 7. Peptides 29 to 34 synthesized in Example 2 were weighed and dissolved in Tris buffer (pH 7.0) to prepare 1.0 mM peptide solutions. Each solution was filtered with a Chromatdisk (product of Merck Millipore, Millex-GV, 0.22 μm). The filtrate was diluted to 100 μM with Tris buffer (pH 7.0) and dispensed into a tube (Protein LoBind Tube by Eppendorf Co.). The prepared peptide solutions were incubated for 2 weeks in a 60° C. thermostatic bath to obtain stored samples. A simultaneously prepared sample among the peptide solutions that was not stored was used as a standard sample (initial sample). The standard sample and the stored samples were stored at −30° C. until sample analysis. The remaining rate after correction for water for each peptide among the stored samples was calculated in the same manner as Example 4, and the results are shown in Table 7-2. Peptide 26 synthesized in Example 2 was weighed and dissolved in Tris buffer (pH 7.0) to prepare a 1.0 mM peptide solution. The solution was filtered with a Chromatdisk (product of Merck Millipore, Millex-GV, 0.22 μm). The filtrate was diluted to 100 μM with Tris buffer (pH 7.0) and dispensed into a tube (Protein LoBind Tube by Eppendorf Co.). The prepared peptide solution was incubated for one week or 2 weeks in a 60° C. thermostatic bath to obtain stored samples. A simultaneously prepared sample among the peptide solutions that was not stored was used as a standard sample (initial sample). The standard sample and the stored sample were stored at −30° C. until sample analysis. […]

## CC[C@H](C)[C@H](NC(=O)[C@H](C)NC(=O)[C@H](Cc1nnn[nH]1)NC(=O)[C@H](CO)NC(=O)[C@H](Cc1c[nH]cn1)NC(C)=O)C(=O)N[C@@H](Cc1ccccc1)C(=O)N[C@H](C(=O)N[C@@H](Cc1nnn[nH]1)C(=O)N[C@@H](CO)C(=O)N[C@@H](Cc1ccc(O)cc1)C(=O)N[C@@H](CO)C(=O)N[C@@H](CCCNC(=N)N)C(=O)N[C@@H](Cc1ccc(O)cc1)C(=O)N[C@@H](CCCNC(=N)N)C(=O)N[C@@H](CCCCN)C(=O)N[C@@H](CCC(N)=O)C(=O)N[C@@H](C)C(=O)N[C@@H](C)C(=O)N[C@H](C(=O)N[C@@H](CCCCN)C(=O)N[C@@H](CCCCN)C(=O)N[C@@H](Cc1ccc(O)cc1)C(=O)N[C@@H](CC(C)C)C(=O)N[C@@H](C)C(=O)N[C@@H](C)C(=O)N[C@H](C(=O)N[C@@H](CC(C)C)C(N)=O)C(C)C)C(C)C)[C@@H](C)O [Peptide 32] (Ac-HS[Ala(1H-tetrazol-5-yl)]AIFT[Ala(1H-tetrazol-5-yl)]SYSRYRKQAAVKKYLAAVL-NH2)
Table 7-2
  remaining rate after correction for water, 60° C., 2 weeks preservation: 88.7%

## CC[C@H](C)[C@H](NC(=O)CNC(=O)[C@H](Cc1nnn[nH]1)NC(=O)[C@H](C)NC(=O)[C@H](Cc1c[nH]cn1)NC(C)=O)C(=O)N[C@@H](Cc1ccccc1)C(=O)N[C@H](C(=O)N[C@@H](Cc1nnn[nH]1)C(=O)N[C@@H](CO)C(=O)N[C@@H](Cc1ccc(O)cc1)C(=O)N[C@@H](CO)C(=O)N[C@@H](CCCNC(=N)N)C(=O)N[C@@H](Cc1ccc(O)cc1)C(=O)N[C@@H](CCCNC(=N)N)C(=O)N[C@@H](CCCCN)C(=O)N[C@@H](CCC(N)=O)C(=O)N[C@@H](C)C(=O)N[C@@H](C)C(=O)N[C@H](C(=O)N[C@@H](CCCCN)C(=O)N[C@@H](CCCCN)C(=O)N[C@@H](Cc1ccc(O)cc1)C(=O)N[C@@H](CC(C)C)C(=O)N[C@@H](C)C(=O)N[C@@H](C)C(=O)N[C@H](C(=O)N[C@@H](CC(C)C)C(N)=O)C(C)C)C(C)C)[C@@H](C)O [Peptide 25] (Ac-HA[Ala(1H-tetrazol-5-yl)]GIFT[Ala(1H-tetrazol-5-yl)]SYSRYRKQAAVKKYLAAVL-NH2)
Table 7
  remaining rate after correction for water, 60° C., 1 week preservation: 95.8%
  remaining rate after correction for water, 60° C., 2 weeks preservation: 91.2%

## CC[C@H](C)[C@H](NC(=O)CNC(=O)[C@H](Cc1nnn[nH]1)NC(=O)[C@H](C)NC(=O)[C@H](Cc1c[nH]cn1)NC(C)=O)C(=O)N[C@@H](Cc1ccccc1)C(=O)N[C@H](C(=O)N[C@@H](Cc1nnn[nH]1)C(=O)N[C@@H](CO)C(=O)N[C@@H](Cc1ccc(O)cc1)C(=O)N[C@@H](CO)C(=O)N[C@@H](CCCNC(=N)N)C(=O)N[C@@H](Cc1ccc(O)cc1)C(=O)N[C@@H](CCCNC(=N)N)C(=O)N[C@@H](CCCCN)C(=O)N[C@@H](CCC(N)=O)C(=O)N[C@@H](CC(C)C)C(=O)N[C@@H](C)C(=O)N[C@H](C(=O)N[C@@H](CCCCN)C(=O)N[C@@H](CCCCN)C(=O)N[C@@H](Cc1ccc(O)cc1)C(=O)N[C@@H](CC(C)C)C(=O)N[C@@H](C)C(=O)N[C@@H](C)C(=O)N[C@H](C(=O)N[C@@H](CC(C)C)C(N)=O)C(C)C)C(C)C)[C@@H](C)O [Peptide 14] (Ac-HA[Ala(1H-tetrazol-5-yl)]GIFT[Ala(1H-tetrazol-5-yl)]SYSRYRKQLAVKKYLAAVL-NH2)
Table 7
  remaining rate after correction for water, 60° C., 1 week preservation: 96.7%
  remaining rate after correction for water, 60° C., 2 weeks preservation: 94.5%

## CC[C@H](C)[C@H](NC(=O)CNC(=O)[C@H](Cc1nnn[nH]1)NC(=O)[C@H](CO)NC(=O)[C@H](Cc1c[nH]cn1)NC(C)=O)C(=O)N[C@@H](Cc1ccccc1)C(=O)N[C@H](C(=O)N[C@@H](Cc1nnn[nH]1)C(=O)N[C@@H](CO)C(=O)N[C@@H](Cc1ccc(O)cc1)C(=O)N[C@@H](CO)C(=O)N[C@@H](CCCNC(=N)N)C(=O)N[C@@H](Cc1ccc(O)cc1)C(=O)N[C@@H](CCCNC(=N)N)C(=O)N[C@@H](CCCNC(=N)N)C(=O)N[C@@H](CCC(N)=O)C(=O)N[C@@H](CC(C)C)C(=O)N[C@@H](C)C(=O)N[C@H](C(=O)N[C@@H](CCCNC(=N)N)C(=O)N[C@@H](CCCNC(=N)N)C(=O)N[C@@H](Cc1ccc(O)cc1)C(=O)N[C@@H](CC(C)C)C(=O)N[C@@H](C)C(=O)N[C@@H](C)C(=O)N[C@H](C(=O)N[C@@H](CC(C)C)C(=O)NCC(=O)N[C@@H](CCCNC(=N)N)C(=O)N[C@@H](CCCNC(=N)N)C(N)=O)C(C)C)C(C)C)[C@@H](C)O [Peptide 22] (Ac-HS[Ala(1H-tetrazol-5-yl)]GIFT[Ala(1H-tetrazol-5-yl)]SYSRYRRQLAVRRYLAAVLGRR-NH2)
Table 7
  remaining rate after correction for water, 60° C., 1 week preservation: 98.2%

## CC[C@H](C)[C@H](NC(=O)CNC(=O)[C@H](Cc1nnn[nH]1)NC(=O)[C@H](CO)NC(=O)[C@H](Cc1c[nH]cn1)NC(C)=O)C(=O)N[C@@H](Cc1ccccc1)C(=O)N[C@H](C(=O)N[C@@H](Cc1nnn[nH]1)C(=O)N[C@@H](CO)C(=O)N[C@@H](Cc1ccc(O)cc1)C(=O)N[C@@H](CO)C(=O)N[C@@H](CCCNC(=N)N)C(=O)N[C@@H](Cc1ccc(O)cc1)C(=O)N[C@@H](CCCNC(=N)N)C(=O)N[C@@H](CCCCN)C(=O)N[C@@H](CCC(N)=O)C(=O)N[C@@H](CC(C)C)C(=O)N[C@@H](C)C(=O)N[C@H](C(=O)N[C@@H](CCCCN)C(=O)N[C@@H](CCCCN)C(=O)N[C@@H](Cc1ccc(O)cc1)C(=O)N[C@@H](CC(C)C)C(=O)N[C@@H](C)C(=O)N[C@@H](C)C(=O)N[C@H](C(=O)N[C@@H](C)C(N)=O)C(C)C)C(C)C)[C@@H](C)O [Peptide 20] (Ac-HS[Ala(1H-tetrazol-5-yl)]GIFT[Ala(1H-tetrazol-5-yl)]SYSRYRKQLAVKKYLAAVA-NH2)
Table 7
  remaining rate after correction for water, 60° C., 1 week preservation: 93.9%
  remaining rate after correction for water, 60° C., 2 weeks preservation: 91.8%

## CC[C@H](C)[C@H](NC(=O)CNC(=O)[C@H](Cc1nnn[nH]1)NC(=O)[C@H](CO)NC(=O)[C@H](Cc1c[nH]cn1)NC(C)=O)C(=O)N[C@@H](Cc1ccccc1)C(=O)N[C@H](C(=O)N[C@@H](Cc1nnn[nH]1)C(=O)N[C@@H](C)C(=O)N[C@@H](Cc1ccc(O)cc1)C(=O)N[C@@H](CO)C(=O)N[C@@H](CCCNC(=N)N)C(=O)N[C@@H](Cc1ccc(O)cc1)C(=O)N[C@@H](CCCNC(=N)N)C(=O)N[C@@H](CCCCN)C(=O)N[C@@H](C)C(=O)N[C@@H](CC(C)C)C(=O)N[C@@H](C)C(=O)N[C@H](C(=O)N[C@@H](CCCCN)C(=O)N[C@@H](CCCCN)C(=O)N[C@@H](Cc1ccc(O)cc1)C(=O)N[C@@H](CC(C)C)C(=O)N[C@@H](C)C(=O)N[C@@H](C)C(=O)N[C@H](C(=O)N[C@@H](CC(C)C)C(N)=O)C(C)C)C(C)C)[C@@H](C)O [Peptide 26] (Ac-HS[Ala(1H-tetrazol-5-yl)]GIFT[Ala(1H-tetrazol-5-yl)]AYSRYRKALAVKKYLAAVL-NH2)
Table 10, HPLC conditions 3
  remaining rate after correction for water, 60° C., 1 week preservation: 98.0%
  remaining rate after correction for water, 60° C., 2 weeks preservation: 94.8%

## CC[C@H](C)[C@H](NC(=O)CNC(=O)[C@H](Cc1nnn[nH]1)NC(=O)[C@H](CO)NC(=O)[C@@H](N)Cc1c[nH]cn1)C(=O)N[C@@H](Cc1ccccc1)C(=O)N[C@H](C(=O)N[C@@H](Cc1nnn[nH]1)C(=O)N[C@@H](CO)C(=O)N[C@@H](Cc1ccc(O)cc1)C(=O)N[C@@H](CO)C(=O)N[C@@H](CCCNC(=N)N)C(=O)N[C@@H](Cc1ccc(O)cc1)C(=O)N[C@@H](CCCNC(=N)N)C(=O)N[C@@H](CCCCN)C(=O)N[C@@H](CCC(N)=O)C(=O)N[C@@H](CC(C)C)C(=O)N[C@@H](C)C(=O)N[C@H](C(=O)N[C@@H](CCCCN)C(=O)N[C@@H](CCCCN)C(=O)N[C@@H](Cc1ccc(O)cc1)C(=O)N[C@@H](CC(C)C)C(=O)N[C@@H](C)C(=O)N[C@@H](C)C(=O)N[C@H](C(=O)N[C@@H](CC(C)C)C(N)=O)C(C)C)C(C)C)[C@@H](C)O [Peptide 7] (H-HS[Ala(1H-tetrazol-5-yl)]GIFT[Ala(1H-tetrazol-5-yl)]SYSRYRKQLAVKKYLAAVL-NH2)
Table 6, HPLC conditions 2
  remaining rate after correction for water, 60° C., 1 week preservation: 91.7%
  remaining rate after correction for water, 60° C., 2 weeks preservation: 84.8%
